The results in this text go back to ChEMBL document CHEMBL1128726, “N-substituted oxazolo[5,4-b]pyridin-2(1H)-ones: a new class of non-opiate antinociceptive agents” (J Med Chem, 1995).

For orientation: inhibition in vivo means the change of the read-out against control, counted positive when it falls. For orientation: ED50 means the dose at which the effect has come halfway, by size or by number of responders.

Calls of active or inactive are those of the source.

In assay [1] the test system is Mus musculus. Description: Analgesic activity was evaluated in mice by hot plate assay and percent change in foot licking latency was determined at 16 mg/kg i.p. dose. Type of assay: functional. To be noted: route intraperitoneal. Background: Hot-plate and tail-flick tests time the reaction to a heat stimulus.
Assay [2] relates to Mus musculus. Nature of the assay: Analgesic activity was evaluated in mice (10 mice/dose)by tail clip assay and expressed as number of protected animals upon total. Total tested was determined at 5 mg/kg p.o. dose; 5/10. Format: functional, organism-based. On the set-up: dose 5 mg/kg.
The subject of assay [3] is Rattus norvegicus. Nature of the assay: % inhibition of acetic acid-induced writhing in rat at 30 mg/kg peroral dose, 360 min postdose(5 rats per compound at each time). To be noted: 6 h, route oral. Type of assay: functional. A general note: Writhing tests count abdominal constrictions after an irritant is injected.
Assay [4] has as its system Rattus norvegicus. Description: % inhibition of acetic acid-induced writhing in rat at 30 mg/kg peroral dose, 60 min postdose(5 rats per compound at each time). Type of assay: functional. To be noted: 1 h, route oral.
The species entered for assay [5] is Rattus norvegicus. Nature of the assay: Antinociceptive potency against acetic acid -induced writhing in rat (8 rats/dose). Format: functional.
The subject of assay [6] is Rattus norvegicus. Description: % inhibition of acetic acid-induced writhing in rat at 30 mg/kg peroral dose, 15 min postdose(5 rats per compound at each time). Type of assay: functional. To be noted: 0.25 h, route oral.
The subject of assay [7] is Rattus norvegicus. Description: % inhibition of acetic acid-induced writhing in rat at 30 mg/kg peroral dose, 180 min postdose(5 rats per compound at each time). Type of assay: functional. To be noted: 3 h, route oral.
The subject of assay [8] is Rattus norvegicus. Description: % inhibition of acetic acid-induced writhing in rat at 30 mg/kg peroral dose, 30 min postdose(5 rats per compound at each time). The conditions noted are these: 0.5 h, route oral. Type of assay: functional.
Assay [9] deals with Rattus norvegicus. Description: % inhibition of acetic acid-induced writhing in rat at 30 mg/kg peroral dose, 120 min postdose(5 rats per compound at each time). Format: functional. To be noted: 2 h, route oral.
For assay [10], the species on record is Mus musculus. Nature of the assay: Antinociceptive potency against phenylquinone (PBQ)-induced writhing in mice (8 mice/dose). Type of assay: functional.

For `CN1CC[C@]23c4c5ccc(O)c4O[C@H]2[C@@H](O)C=C[C@H]3[C@H]1C5.CN1CC[C@]23c4c5ccc(O)c4O[C@H]2[C@@H](O)C=C[C@H]3[C@H]1C5.O=S(=O)(O)O`, in [1], the “Change in foot-licking latency” value amounted to 283%. Further, in assay [2], the “No. of protected animals/total” value is “Partially active”.

For `CC(=O)Oc1ccccc1C(=O)O` [ASPIRIN], the inhibition in vivo at 30 mg/kg in assay [3] came to 0%; in [4], 60%; in assay [6], 53%; in [7], 18%; in [8], 37%; in [9] it was 26%. The ED50 in assay [5] amounted to 32 mg/kg; in assay [10] it was 63 mg/kg.
